Measurements from US9856279B2 (AGIOS PHARMACEUTICALS, INC, priority 2011, dated 2018).

biological target: IDH1 R132H (Homo sapiens, UniProt O75874, R132H); experiment: Assay for IDH1 R132H inhibitors (NADPH/aKG, resazurin detection); format: biochemical; settings: Table 3; enzyme assay, 50 minutes at room temperature; read-out: IC50 (IDH1 R132H Inhibition)
Method: Assays were conducted in a volume of 76 μl assay buffer (150 mM NaCl, 10 mM MgCl2, 20 mM Tris pH 7.5, 0.03% bovine serum albumin) as follows in a standard 384-well plate: To 25 ul of substrate mix (8 uM NADPH, 2 mM aKG), 1 μl of test compound was added in DMSO. The plate was centrifuged briefly, and then 25 μl of enzyme mix was added (0.2 μg/ml IDH1 R132H) followed by a brief centrifugation and shake at 100 RPM. The reaction was incubated for 50 minutes at room temperature, then 25 μl of detection mix (30 μM resazurin, […]) was added and the mixture further incubated for 5 minutes at room temperature. The conversion of resazurin to resorufin was detected by fluorescent spectroscopy at Ex544 Em590 c/o 590.

Sequence of IDH1 R132H (O75874 whole entry R132H): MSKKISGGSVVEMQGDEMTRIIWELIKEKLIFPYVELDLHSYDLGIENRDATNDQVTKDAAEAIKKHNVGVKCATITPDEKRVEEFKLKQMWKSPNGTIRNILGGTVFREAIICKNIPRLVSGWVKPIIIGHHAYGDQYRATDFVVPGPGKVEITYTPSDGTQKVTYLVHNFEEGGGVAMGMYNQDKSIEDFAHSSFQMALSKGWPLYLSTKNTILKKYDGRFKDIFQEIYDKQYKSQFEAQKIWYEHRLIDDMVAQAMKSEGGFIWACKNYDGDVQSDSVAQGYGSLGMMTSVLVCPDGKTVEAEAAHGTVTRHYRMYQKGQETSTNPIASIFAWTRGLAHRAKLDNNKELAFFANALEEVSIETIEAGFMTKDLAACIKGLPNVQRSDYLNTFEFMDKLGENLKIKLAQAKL

IC50 [nM]	SMILES
1000 to 5000	Cc1occc1C(=O)N1CCN(c2nc(C(C)C)c(-c3ccc(F)cc3)cc2C#N)C[C@H]1C [Compound 199, (R)-5-(4-fluorophenyl)-6-isopropyl-2-(3-methyl-4-(2-methylfuran-3-carbonyl)piperazin-1-yl)nicotinonitrile]
1000 to 5000	COc1cccc(-c2cc(C(C)C)nc(N3CCN(C(=O)c4ccoc4)[C@H](C)C3)c2C#N)c1 [Compound 151, (R)-2-(4-(furan-3-carbonyl)-3-methylpiperazin-1-yl)-6-isopropyl-4-(3-methoxyphenyl)nicotinonitrile]
1000 to 5000	COCCC(=O)N1CCN(c2nc(C(C)C)c(-c3ccc(C(F)(F)F)cc3)cc2C#N)C[C@H]1C(C)C [Compound 197, (R)-6-isopropyl-2-(3-isopropyl-4-(3-methoxypropanoyl)piperazin-1-yl)-5-(4-(trifluoromethyl)phenyl)nicotinonitrile]
1000 to 5000	COc1ccccc1-c1cc(C(C)C)nc(N2CCN(C(=O)c3ccoc3)[C@H](C)C2)c1C#N [Compound 148, (R)-2-(4-(furan-3-carbonyl)-3-methylpiperazin-1-yl)-6-isopropyl-4-(2-methoxyphenyl)nicotinonitrile]
1000 to 5000	CC(C)c1nc(N2CCN(C(=O)Cc3ccccc3)[C@H](C)C2)c(C#N)cc1-c1ccccc1 [Compound 143, (R)-6-isopropyl-2-(3-methyl-4-(2-phenylacetyl)piperazin-1-yl)-5-phenylnicotinonitrile]
1000 to 5000	COCCC(=O)N1CCN(c2nc(C(C)C)c(-c3cccc(C)c3)cc2C#N)C[C@H]1C [Compound 193, (R)-6-isopropyl-2-(4-(3-methoxypropanoyl)-3-methylpiperazin-1-yl)-5-m-tolylnicotinonitrile]
≤ 1000	COCCC(=O)N1CCN(c2nc(C(C)C)c(-c3ccccc3)cc2C#N)C[C@H]1C [Compound 222, (R)-6-isopropyl-2-(4-(3-methoxypropanoyl)-3-methylpiperazin-1-yl)-5-phenylnicotinonitrile]
≤ 1000	COCCC(=O)N1CCN(c2nc(C3CC3)c(-c3ccc(OC(F)(F)F)cc3)cc2C#N)C[C@H]1C [Compound 227, (R)-6-cyclopropyl-2-(4-(3-methoxypropanoyl)-3-methylpiperazin-1-yl)-5-(4-(trifluoromethoxy)phenyl)nicotinonitrile]
1000 to 5000	COCCC(=O)N1CCN(c2nc(C(C)C)c(-c3cccc(F)c3)cc2C#N)C[C@H]1C [Compound 231, (R)-5-(3-fluorophenyl)-6-isopropyl-2-(4-(3-methoxypropanoyl)-3-methylpiperazin-1-yl)nicotinonitrile]
1000 to 5000	CC(C)c1nc(N2CCN(C(=O)Cc3cccs3)[C@H](C)C2)c(C#N)cc1-c1ccc(C(F)(F)F)cc1 [Compound 188, (R)-6-isopropyl-2-(3-methyl-4-(2-(thiophen-2-yl)acetyl)piperazin-1-yl)-5-(4-(trifluoromethyl)phenyl)nicotinonitrile]
1000 to 5000	COCCC(=O)N1CCN(c2nc(C(C)C)c(-c3ccc(C)c(F)c3)cc2C#N)C[C@H]1C [Compound 221, (R)-5-(3-fluoro-4-methylphenyl)-6-isopropyl-2-(4-(3-methoxypropanoyl)-3-methylpiperazin-1-yl)nicotinonitrile]
1000 to 5000	COCCC(=O)N1CCN(c2nc(C(C)C)c(-c3ccc4c(c3)OCCO4)cc2C#N)C[C@H]1C [Compound 233, (R)-5-(2,3-dihydrobenzo[b][1,4]dioxin-6-yl)-6-isopropyl-2-(4-(3-methoxypropanoyl)-3-methylpiperazin-1-yl)nicotinonitrile]
1000 to 5000	COc1ccccc1-c1cc(C#N)c(N2CCN(C(=O)Cc3cccs3)[C@H](C)C2)nc1C(C)C [Compound 177, (R)-6-isopropyl-5-(2-methoxyphenyl)-2-(3-methyl-4-(2-(thiophen-2-yl)acetyl)piperazin-1-yl)nicotinonitril-e]
≤ 1000	COCCC(=O)N1CCN(c2nc(C(C)C)c(-c3ccc(OC)c(OC)c3)cc2C#N)C[C@H]1C [Compound 223, (R)-5-(3,4-dimethoxyphenyl)-6-isopropyl-2-(4-(3-methoxypropanoyl)-3-methylpiperazin-1-yl)nicotinonitr-ile]
1000 to 5000	CC(C)c1cc(-c2cccc(F)c2)c(C#N)c(N2CC(C)N(C(=O)Cc3ccccc3)C(C)C2)n1 (stereo not shown) [Compound 135, 2-(3,5-dimethyl-1-(2-phenylacetyl)piperazin-1-yl)-4-(3-fluorophenyl)-6-isopropylnicotinonitrile]
1000 to 5000	COCCC(=O)N1CCN(c2nc(C(C)C)c(Cc3ccccc3)cc2C#N)C[C@H]1C [Compound 239, (R)-5-benzyl-6-isopropyl-2-(4-(3-methoxypropanoyl)-3-methylpiperazin-1-yl)nicotinonitrile]
5000 to 15000	CC(C)c1nc(N2CCN(C(=O)c3c[nH]c4ccccc34)CC2)c(C#N)cc1-c1ccccc1 [Compound 125, 2-(4-(1H-indole-3-carbonyl)piperazin-1-yl)-6-isopropyl-5-phenylnicotinonitrile]
1000 to 5000	CC(C)c1nc(N2CCN(C(=O)Cc3ccccc3)C(C)C2)c(C#N)cc1-c1ccccc1 (stereo not shown) [Compound 139, 6-isopropyl-2-(3-methyl-4-(2-phenylacetyl)piperazin-1-yl)-5-phenylnicotinonitrile]

same assay, conditions: enzyme assay of Example 12; read-out: IDH1R132H IC50

IC50 [nM]	SMILES
< 500	CNS(=O)(=O)c1ccc(-c2c(C3CC3)nc(N3CCN(C(=O)CCOC)[C@H](C)C3)c(C#N)c2C)cc1 [Compound 331, (R)-4-{5-cyano-2-cyclopropyl-6-[4-(3-methoxy-propionyl)-3-methyl-piperazin-1-yl]-4-methyl-pyridin-3-yl}-N-methyl-benzenesulfonamide]
< 500	N#Cc1cc(-c2cncc(C(N)=O)c2)c(C2CC2)nc1N1CCN(C(=O)CC(F)(F)F)[C@H](C2CC2)C1 [Compound 540, (R)-5′-cyano-2′-cyclopropyl-6′-(3-cyclopropyl-4-(3,3,3-trifluoropropanoyl)piperazin-1-yl)-[3,3′-bipyridine]-5-carboxamide]
< 500	COCCC(=O)N1CCN(c2nc(C3CC3)c(Nc3ccnc(OC)c3)cc2C#N)C[C@H]1C [Compound 682, (R)-6-cyclopropyl-2-(4-(3-methoxypropanoyl)-3-methylpiperazin-1-yl)-5-((2-methoxypyridin-4-yl)amino)nicotinonitrile]
500 to 1000	COCCC(=O)N1CCN(c2nc(C3CC3)c(N3CCN(C(=O)c4ccccc4)CC3)cc2C#N)C[C@H]1C [Compound 379, (R)-5-(4-benzoylpiperazin-1-yl)-6-cyclopropyl-2-(4-(3-methoxypropanoyl)-3-methylpiperazin-1-yl)nicotinonitrile]
< 500	COC(=O)CCC(=O)N1CCN(c2nc(C3CC3)c(-c3ccnc(Cl)c3)cc2C#N)C[C@H]1C1CC1 [Compound 739, (R)-methyl 4-(4-(2′-chloro-5-cyano-2-cyclopropyl-3,4′-bipyridin-6-yl)-2-cyclopropylpiperazin-1-yl)-4-oxobutanoate]
500 to 1000	CC1CN(c2nc(C3CC3)c(-c3cccc4cnccc34)cc2C#N)CC(F)CN1C(=O)C1CC1 (stereo not shown) [Compound 484, 2-(4-(cyclopropanecarbonyl)-6-fluoro-3-methyl-1,4-diazepan-1-yl)-6-cyclopropyl-5-(isoquinolin-5-yl)nicotinonitrile]
500 to 1000	COCCC(=O)N1CCN(c2nc(C3CC3)c(-c3cc4ccccc4[nH]3)cc2C#N)C[C@H]1C [Compound 394, (R)-6-cyclopropyl-5-(1H-indol-2-yl)-2-[4-(3-methoxy-propionyl)-3-methyl-piperazin-1-yl]-nicotinonitrile]
500 to 1000	COCCC(=O)N1CCN(c2nc(C3CC3)c(-c3ccc(F)cc3)c(COC)c2C#N)C[C@H]1C [Compound 298, (R)-6-cyclopropyl-5-(4-fluorophenyl)-4-(methoxymethyl)-2-(4-(3-methoxypropanoyl)-3-methylpiperazin-1-yl)nicotinonitrile]
500 to 1000	N#Cc1cc(-c2cnn(CCO)c2)c(C2CC2)nc1N1CCN(C(=O)C2CC2)[C@H](C2CC2)C1 [Compound 490, (R)-2-(4-(cyclopropanecarbonyl)-3-cyclopropylpiperazin-1-yl)-6-cyclopropyl-5-(1-(2-hydroxyethyl)-1H-pyrazol-4-yl)nicotinonitrile]
500 to 1000	COCCC(=O)N1CCN(c2nc(C3CC3)c(-c3ccc(C#N)nc3)cc2C#N)C[C@H]1C [Compound 584, (R)-2-cyclopropyl-6-(4-(3-methoxypropanoyl)-3-methylpiperazin-1-yl)-3,3′-bipyridine-5,6′-dicarbonitrile]
< 500	C=Cc1cc(-c2cc(C#N)c(N3CCN(C(=O)CO)[C@H](C)C3)nc2C2CC2)ccn1 [Compound 632, (R)-2-cyclopropyl-6-(4-(2-hydroxyacetyl)-3-methylpiperazin-1-yl)-2′-vinyl-3,4′-bipyridine-5-carbonitrile]
500 to 1000	N#Cc1cc(-c2ccnc(Cl)c2F)c(C2CC2)nc1N1CCN(C(=O)C2CC2)[C@H](C2CC2)C1 [Compound 509, (R)-2′-chloro-6-(4-(cyclopropanecarbonyl)-3-cyclopropylpiperazin-1-yl)-2-cyclopropyl-3′-fluoro-3,4′-bipyridine-5-carbonitrile]
< 500	C[C@@H]1CN(c2nc(C3CC3)c(Nc3ccnc(Cl)c3)cc2C#N)CCN1C(=O)CCO [Compound 661, (R)-5-((2-chloropyridin-4-yl)amino)-6-cyclopropyl-2-(4-(3-hydroxypropanoyl)-3-methylpiperazin-1-yl)nicotinonitrile]
